Patent US9326513B2, “Fungicidal compositions” (Syngenta Participations AG, priority 2011, dated 2016)
Read-outs that look alike come from different tables or passages of the source.

Columns and labels:
[1] = test system: Puccinia recondita f. sp. tritici; assay: Puccinia recondita f. sp. tritici / wheat / leaf disc preventative (brown rust); type: in vivo; settings: foliar, compared to untreated control leaf disks, read-out: disease control
From the text: Puccinia recondita f. sp. tritici/Wheat/Leaf Disc Preventative (Brown Rust) Wheat leaf segments cv. Kanzler were placed on agar in multiwell plates (24-well format) and sprayed with the formulated test compound diluted in water. The leaf disks were inoculated with a spore suspension of the fungus 1 day after application.

[2] = test system: Blumeria graminis f. sp. tritici (Erysiphe graminis f. sp. tritici); assay: Blumeria graminis f. sp. tritici / wheat / leaf disc preventative (powdery mildew on wheat); type: in vivo; settings: foliar, compared to untreated control leaf disks, read-out: disease control
Procedure, shortened: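 Wheat leaf segments (cv. Kanzler) on agar were sprayed with formulated compound in water, inoculated with powdery mildew 1 day later, and kept at 20° C, 60% rh (24 h dark, then 12 h light/12 h dark). Percent disease control versus untreated scored 6-8 days after application; tested at 200 ppm.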

Pyrenophora teres = Pyrenophora teres / barley / leaf disc preventative (net blotch); type: in vivo; settings: foliar, compared to untreated control leaf disks, read-out: disease control
From the text: Pyrenophora teres/Barley/Leaf Disc Preventative (Net Blotch) Barley leaf segments cv. Hasso were placed on agar in a multiwell plate (24-well format) and sprayed with the formulated test compound diluted in water. The leaf segments were inoculated with a spore suspension of the fungus 2 days after application.

[3] = test system: Puccinia recondita f. sp. tritici; assay: Puccinia recondita f. sp. tritici / wheat / leaf disc curative (brown rust); type: in vivo; settings: foliar, compared to untreated control leaf disks, read-out: disease control
Method: Puccinia recondita f. sp. tritici/Wheat/Leaf Disc Curative (Brown Rust) Wheat leaf segments cv. Kanzler are placed on agar in multiwell plates (24-well format). The leaf segments are inoculated with a spore suspension of the fungus. Plates were stored in darkness at 19° C. and 75% rh. The formulated test compound diluted in water was applied 1 day after inoculation.

Septoria tritici [4] = assay: Septoria tritici on wheat, preventive treatment; type: in vivo; settings: solo, wheat Riband, 1 day preventive, 18 days after application
[5] = test system: Mycosphaerella arachidis (y. Cercospora arachidicola); assay: Mycosphaerella arachidis (brown leaf spot of groundnut), PDB microtiter plate, visual after 5-6 days; type: cell-based
Botrytis cinerea = Botrytis cinerea (gray mould), PDB microtiter plate, visual after 72 hrs; type: cell-based; settings: for inhibition at 0.125 ppm: rate 0.125 ppm; for inhibition at 0.25 ppm: rate 0.25 ppm; for inhibition at 0.5 ppm: rate 0.5 ppm
[6] = test system: Monographella nivalis (syn. Microdochium nivale, Fusarium nivale); assay: Monographella nivalis (snow mould, foot rot of cereals), PDB microtiter plate, visual after 72 hrs; type: cell-based; settings: Monographella nivalis, applied alone
Septoria tritici [7] = assay: Septoria tritici (leaf blotch), YBG microtiter plate, photometric growth inhibition after 6 days; type: cell-based; settings: Zymoseptoria tritici, 144 h
From the text: In the following Tables ‘Activity (%)’ means the assessed experimental activity (% disease control in this test when compared to untreated control leaf disks under the same conditions, which show extensive disease development) and “P” is the expected value calculated (expected) activity according to the COLBY formula (see above). The column headed ‘S?’ indicates whether or not synergy was observed, with ‘y’ meaning that synergy was observed.
Septoria tritici (Leaf Blotch):
After placing solutions of the test compounds (containing 0.2% DMSO) into a microtiter plate (96-well format), an equal amount of the nutrient broth (YBG) was added to each of the well. Finally the fungal spore solution was added. The test plates were incubated at 20° C. The inhibition of growth was determined photometrically after 6 days and the activity calculated in relation to untreated control.

Septoria tritici [8] = assay: Septoria tritici (leaf blotch), PDB microtiter plate, visual after 72 hrs; type: cell-based; settings: Zymoseptoria tritici
[9] = Mycosphaerella arachidis, single compound, 0.00390625 ppm, read-out: Activity (%)
[10] = Mycosphaerella arachidis, single compound, 0.0078125 ppm, read-out: Activity (%)
[11] = Mycosphaerella arachidis, single compound, 0.015625 ppm, read-out: Activity (%)
[12] = Mycosphaerella arachidis, single compound, 0.03125 ppm, read-out: Activity (%)
[13] = Mycosphaerella arachidis, single compound, 0.0625 ppm, read-out: Activity (%)
[14] = Botrytis cinerea, single compound

CCN(C)/C=N/c1cc(Br)c(OC(C)c2ccccc2-c2ccccc2)nc1C (stereo not shown) [Q.295]
pest or weed control at 200 ppm [1]: ≥ 50% | melting point: 59 to 62 °C

C#Cc1cccc(COc2nc(C)c(/N=C/N(C)CC)cc2Br)c1 [Q.195]
pest or weed control at 200 ppm [2]: ≥ 50% | pest or weed control at 200 ppm [1]: ≥ 50% | melting point: 52 to 54 °C | pest or weed control at 200 ppm (Pyrenophora teres): ≥ 50% | pest or weed control at 200 ppm [3]: ≥ 50%

CCN(C)/C=N/c1cc(Br)c(OCCc2ccc(F)cc2)nc1C [Q.129]
pest or weed control at 200 ppm [2]: ≥ 50% | pest or weed control at 200 ppm [1]: ≥ 50% | melting point: 46 to 48 °C | pest or weed control at 200 ppm (Pyrenophora teres): ≥ 50% | pest or weed control at 200 ppm [3]: ≥ 50%

OC(c1cccnc1)c1c(-c2ccc(Cl)cc2F)noc1-c1ccc(F)cc1F (stereo not shown) [(VII), [3-(4-chloro-2-fluoro-phenyl)-5-(2,4-difluoro-phenyl)-isoxazol-4-yl]-pyridin-3-yl-methanol, reference compound]
Activity (Septoria tritici [4]; 3 g a.i./ha): 0% | Activity (Septoria tritici [4]; 9 g a.i./ha): 20% | Activity (Septoria tritici [4]; 27 g a.i./ha): 96%

CCN(C)/C=N/c1cc(Br)c(OCCc2cc(C)cc(C)c2)nc1C [Q.422]
melting point: 61 to 63 °C

CCN(C)/C=N/c1cc(Br)c(OCc2c(C)cccc2C)nc1C [Q.325]
pest or weed control at 200 ppm [2]: ≥ 50% | pest or weed control at 200 ppm [1]: ≥ 50% | melting point: 56 to 57 °C | pest or weed control at 200 ppm [3]: ≥ 50%

CCN(C)/C=N/c1cc(Br)c(OCc2c(F)cccc2F)nc1C [Q.326]
pest or weed control at 200 ppm [2]: ≥ 50% | pest or weed control at 200 ppm [1]: ≥ 50% | melting point: 61 to 62 °C | pest or weed control at 200 ppm (Pyrenophora teres): ≥ 50% | pest or weed control at 200 ppm [3]: ≥ 50%

CC(Cc1ccc(C(C)(C)C)cc1)CN1C[C@@H](C)O[C@@H](C)C1 (stereo partly shown) [Fenpropimorph]
inhibition at 0.00390625 ppm [5, 9]: 20% | inhibition at 0.0078125 ppm [5, 10]: 20% | inhibition at 0.015625 ppm [5, 11]: 50% | inhibition at 0.03125 ppm [5, 12]: 50% | inhibition at 0.0625 ppm [5, 13]: 70% | inhibition at 0.0625 ppm (Botrytis cinerea; Botrytis cinerea, alone, rate 0.0625 ppm, read-out: Activity (%)): 0% | inhibition at 0.125 ppm (Botrytis cinerea; Botrytis cinerea, alone): 0% | inhibition at 0.25 ppm (Botrytis cinerea; Botrytis cinerea, alone): 0% | inhibition at 0.5 ppm (Botrytis cinerea; Botrytis cinerea, alone): 70% | inhibition at 0.125 ppm (Botrytis cinerea; [14]): 0% | inhibition at 0.25 ppm (Botrytis cinerea; [14]): 0% | inhibition at 0.5 ppm (Botrytis cinerea; [14]): 70% | inhibition at 0.0625 ppm ([6]; 0.0625 ppm): 0% | inhibition at 0.125 ppm ([6]; 0.125 ppm): 0% | inhibition at 0.25 ppm ([6]; 0.25 ppm): 0% | inhibition at 0.5 ppm ([6]; 0.5 ppm): 0% | inhibition at 2 ppm ([6]; 2 ppm): 20% | inhibition at 0.0078125 ppm ([6]; rate 0.0078125 ppm): 0% | inhibition at 0.015625 ppm ([6]; rate 0.015625 ppm): 0% | inhibition at 0.03125 ppm ([6]; rate 0.03125 ppm): 0% | inhibition at 0.0625 ppm ([6]; rate 0.0625 ppm): 0% | inhibition at 0.125 ppm ([6]; rate 0.125 ppm): 0%

CCN(C)/C=N/c1cc(Br)c(OCc2cc(C)ccc2C)nc1C [Q.154]
pest or weed control at 200 ppm [2]: ≥ 50% | pest or weed control at 200 ppm [1]: ≥ 50% | melting point: 53 to 57 °C | pest or weed control at 200 ppm (Pyrenophora teres): ≥ 50% | pest or weed control at 200 ppm [3]: ≥ 50%

CCN(C)/C=N/c1cc(Br)c(OCc2ccnc(Cl)c2)nc1C [Q.111]
pest or weed control at 200 ppm [2]: ≥ 50% | pest or weed control at 200 ppm [1]: ≥ 50% | melting point: 57 to 59 °C | pest or weed control at 200 ppm (Pyrenophora teres): ≥ 50% | pest or weed control at 200 ppm [3]: ≥ 50%

CCCN(CCOc1c(Cl)cc(Cl)cc1Cl)C(=O)n1ccnc1 [Prochloraz]
inhibition of growth at 0.015625 ppm (Septoria tritici [7]; read-out: Activity): 48% | inhibition of growth at 0.03125 ppm (Septoria tritici [7]; read-out: Activity): 80%

CCN(C)/C=N/c1cc(Br)c(OCc2ccccc2Cl)nc1C [Q.300]
pest or weed control at 200 ppm [2]: ≥ 50% | pest or weed control at 200 ppm [1]: ≥ 50% | melting point: 53 to 56 °C | pest or weed control at 200 ppm [3]: ≥ 50%

N#Cc1c[nH]cc1-c1cccc2c1OC(F)(F)O2 [Fludioxonil]
inhibition at 0.00390625 ppm ([5]; Mycosphaerella arachidis, read-out: Activity (%), single compound, 0.00390625 ppm): 0% | inhibition at 0.0078125 ppm ([5]; Mycosphaerella arachidis, read-out: Activity (%), single compound, 0.0078125 ppm): 0% | inhibition at 0.015625 ppm ([5]; Mycosphaerella arachidis, read-out: Activity (%), single compound, 0.015625 ppm): 0% | inhibition at 0.03125 ppm ([5]; Mycosphaerella arachidis, read-out: Activity (%), single compound, 0.03125 ppm): 0% | inhibition at 0.0625 ppm ([5]; Mycosphaerella arachidis, read-out: Activity (%), single compound, 0.0625 ppm): 0% | inhibition at 0.125 ppm ([5]; Mycosphaerella arachidis, read-out: Activity (%), single compound, 0.125 ppm): 0% | inhibition at 0.25 ppm ([5]; Mycosphaerella arachidis, read-out: Activity (%), single compound, 0.25 ppm): 0% | inhibition at 0.5 ppm ([5]; Mycosphaerella arachidis, read-out: Activity (%), single compound, 0.5 ppm): 70% | Activity (%) ([5]; single compound, 0.5 ppm): 50% | inhibition at 0.03125 ppm (Botrytis cinerea; Botrytis cinerea, read-out: Activity (%), alone, rate 0.03125 ppm): 0% | inhibition at 0.0625 ppm (Botrytis cinerea; Botrytis cinerea, read-out: Activity (%), alone, rate 0.0625 ppm): 70% | Activity (%) (Botrytis cinerea; alone, rate 0.0625 ppm): 50% | inhibition at 0.25 ppm (Septoria tritici [8]; read-out: Activity (%)): 70%

CC(C)(C)C(O)(CCc1ccc(Cl)cc1)Cn1cncn1 (stereo not shown) [Tebuconazole]
inhibition of growth at 1.25 ppm (Septoria tritici [7]; solo, rate 1.25 ppm): 0% | inhibition of growth at 2.5 ppm (Septoria tritici [7]; solo, rate 2.5 ppm): 47% | inhibition of growth at 5 ppm (Septoria tritici [7]; solo, rate 5 ppm): 73%

CCN(C)/C=N/c1cc(Br)c(OCc2cc(C)ns2)nc1C [Q.235]
pest or weed control at 200 ppm [2]: ≥ 50% | pest or weed control at 200 ppm [1]: ≥ 50% | melting point: 55 to 57 °C | pest or weed control at 200 ppm (Pyrenophora teres): ≥ 50% | pest or weed control at 200 ppm [3]: ≥ 50%

Fc1ccc([C@]2(Cn3cncn3)O[C@H]2c2ccccc2Cl)cc1 (racemic) [Epoxiconazole]
inhibition of growth at 0.15625 ppm (Septoria tritici [7]; solo, rate 0.15625 ppm, read-out: Activity): 65% | inhibition of growth at 0.625 ppm (Septoria tritici [7]; solo, rate 0.625 ppm): 71%

CCN(C)/C=N/c1cc(Br)c(OCc2cccc(C(F)(F)F)c2)nc1C [Q.153]
pest or weed control at 200 ppm [2]: ≥ 50% | pest or weed control at 200 ppm [1]: ≥ 50% | melting point: 43 to 44 °C | pest or weed control at 200 ppm (Pyrenophora teres): ≥ 50% | pest or weed control at 200 ppm [3]: ≥ 50%

CCN(C)/C=N/c1cc(Br)c(OCc2cccc(NC(=O)OC(C)(C)C)c2)nc1C [Q.236]
pest or weed control at 200 ppm [1]: ≥ 50% | melting point: 40 to 42 °C | pest or weed control at 200 ppm (Pyrenophora teres): ≥ 50% | pest or weed control at 200 ppm [3]: ≥ 50%

CCN(C)/C=N/c1cc(Br)c(OCc2ccc(F)cc2C)nc1C [Q.320]
pest or weed control at 200 ppm [2]: ≥ 50% | pest or weed control at 200 ppm [1]: ≥ 50% | melting point: 27 to 30 °C | pest or weed control at 200 ppm (Pyrenophora teres): ≥ 50% | pest or weed control at 200 ppm [3]: ≥ 50%

CCN(C)/C=N/c1cc(Br)c(OCc2cc(C)cc(C)c2)nc1C [Q.207]
pest or weed control at 200 ppm [2]: ≥ 50% | pest or weed control at 200 ppm [1]: ≥ 50% | melting point: 57 to 58 °C | pest or weed control at 200 ppm (Pyrenophora teres): ≥ 50% | pest or weed control at 200 ppm [3]: ≥ 50%

O=[N+]([O-])c1cc(C(F)(F)F)c(Cl)c([N+](=O)[O-])c1Nc1ncc(C(F)(F)F)cc1Cl [Fluazinam]
inhibition at 0.00390625 ppm [5, 9]: 0% | inhibition at 0.0078125 ppm [5, 10]: 0% | inhibition at 0.015625 ppm [5, 11]: 0% | inhibition at 0.03125 ppm [5, 12]: 0% | inhibition at 0.0625 ppm [5, 13]: 20% | inhibition at 0.015625 ppm (Septoria tritici [8]; single compound, 0.015625 ppm): 0% | inhibition at 0.03125 ppm (Septoria tritici [8]; single compound, 0.03125 ppm): 20% | inhibition at 0.0625 ppm (Septoria tritici [8]; single compound, 0.0625 ppm): 70%

CCN(C)/C=N/c1cc(Br)c(OC2CCCc3ccc(-c4cccc(F)c4)cc32)nc1C (stereo not shown) [Q.137]
pest or weed control at 200 ppm [1]: ≥ 50% | melting point: 43 to 45 °C

CC1COC(Cn2cncn2)(c2ccc(Oc3ccc(Cl)cc3)cc2Cl)O1 (stereo not shown) [Difenoconazole]
Activity (Septoria tritici [4]; 0.33 g a.i./ha): 0% | Activity (Septoria tritici [4]; 1 g a.i./ha): 0% | Activity (Septoria tritici [4]; 3 g a.i./ha): 0% | Activity (Septoria tritici [4]; 9 g a.i./ha): 3% | Activity (Septoria tritici [4]; 27 g a.i./ha): 5% | inhibition of growth at 0.15625 ppm (Septoria tritici [7]; read-out: Activity): 48%
